Data taken from patent US12357598B2, “Treatment of neurodevelopmental disorders” (THE REGENTS OF THE UNIVERSITY OF CALIFORNIA, priority 2018, dated 2025).

Key:
Assay type in all cases: in vivo, mouse
[1] = tested on: pregnant ddY mice; experiment: General data (mortality, body weight, behavioral abnormality) of mothers and offspring after maternal glyphosate exposure; conditions: for Behavioral abnormality: juvenile offspring
Procedure: Treatment of glyphosate in drinking water into pregnant mice. Previous studies used drinking water containing 0.38% glyphosate (1% Roundup®) during pregnancy and lactation, equivalent to 50 mg/kg/day of glyphosate (1,2). This does correspond with 1/20 of the glyphosate no-observed-adverse-effect level, as described previously (3). Therefore, water or glyphosate [or 0.1, 0.25, 0.50, 0.75, 1.0% Roundup®, Nissan Chemical Corporation, Tokyo, Japan] were given to the pregnant mice from E5 to P21 (weaning). The male offspring were separated from their mothers at weaning (P21), and mice were caged each three-five in the groups in clear polycarbonate cage (22.5×33.8×14.0 cm). Mice were housed under controlled temperatures and 12 hour light/dark cycles (lights on between 07:00-19:00 h), with ad libitum food and water.
(§1) Treatment of TPPU. TPPU was dissolved in polyethylene glycol 400 (PEG 400: Tokyo Chemical Industry Co., Ltd, Tokyo, Japan). TPPU (3 mg/kg/day) or vehicle (5 ml/kg, PEG 400) was administered orally in the pregnant mice from E5 to P21. Behavioral tests of offspring were performed during juvenile stage (P28-P35) after maternal glyphosate exposure (FIG. 1A).

[2] = tested on: ddY mice; experiment: Three-chamber social interaction test, offspring after maternal glyphosate exposure; conditions: juvenile offspring, maternal 0.095% glyphosate vs water treated group
Procedure: as §1
Three-chamber Social Interaction Test: The three-chamber social interaction test was performed to investigate sociability and preference for social novelty in mice, as reported previously (7). The apparatus consisted of a rectangular, three-chambered box and a lid with a video camera (BrainScience Idea, Co., Ltd, Osaka, Japan). Each chamber (20 cm×40 cm×20 cm) was divided by a clear plastic wall with a small square opening (5 cm×8 cm). First, each subject mouse was placed in the box and allowed to explore for 10 min to habituate the environment. During the session, an empty wire cage (10 cm in diameter, 17.5 cm in height, with vertical bars 0.3 cm apart) was located in the center of left and right chamber. Next, an unfamiliar ddY male mouse (stranger 1) that had no prior contact with the subject mouse was put into a wire cage that was placed into one of the side chambers. […] The time spent in each chamber and the time spent around each cage was recorded on video.

[3] = tested on: GAD67; experiment: GAD67 immunohistochemistry in mPFC, offspring after MIA; conditions: adult offspring of poly(I:C)-treated mice vs saline-treated group
Procedure: Immunohistochemistry. Immunohistochemistry of PV was performed as reported previously (37,39,59,60). Mice were anesthetized with 5% isoflurane and sodium pentobarbital (50 mg/kg), and perfused transcardially with 10 mL of physiological saline, followed by 40 mL of ice-cold 4% paraformaldehyde in 0.1M phosphate buffer (pH 7.4). Brains were removed from the skulls and post fixed overnight at 4° C. in the same fixative. For the immunohistochemical analysis, 50 μm-thick serial, coronal sections of brain tissue were cut in ice-cold 0.01M phosphate buffered saline (pH 7.5) using a vibrating blade microtome (VT1000s, Leica Microsystems, Tokyo, Japan). Free-floating sections were treated with 0.3% H2O2 in 50 mM Tris-HCl saline (TBS) for 30 min and were blocked in TBS containing 0.2% Triton X-100 (TBST) and 1.5% normal serum for 1 h at room temperature. […] The sections were imaged, and the staining intensity of PV (or GADO immunoreactivity in the inflalimbic (IL) and prelimbic (PrL) regions of mPFC was analyzed using a light micro-scope equipped with a CCD camera (Olympus IX70, Tokyo, Japan) and the SCION IMAGE software package. Images of sections within mPFC region were captured using a 100× objective with a Keyence BZ-X710 microscope (Keyence Corporation, Osaka, Japan).

[4] = tested on: Ephx2 mRNA; experiment: Quantitative RT-PCR of Ephx2 mRNA in brain regions of juvenile offspring after MIA; conditions: juvenile offspring of poly(I:C)-treated mice vs saline-treated mice
From the text: Gene expression analysis by quantitative real-time PCR. At juvenile (P28) stage, mice were sacrificed, and their brains were removed for measurement of gene expression of Ephx2 mRNA. Brain regions such as PFC, striatum, CA1, CA3 and DG of the hippocampus were dissected from brain on ice using a Leica microscope S9E (Leica Microsystems, Tokyo, Japan). A quantitative RT-PCR system (Step One Plus, Thermo Fisher Scientific, Yokohama, Japan) was used to measure mRNAs. The specific mRNA transcripts were quantified by TaqManGene Expression assays (Thermo Fisher Scientific, Yokohama, Japan). Expression levels of Ephx2 (Mm01313813_m1) was measured in brain tissue. Total RNA was extracted by use of an RNeasy Mini Kit (Qiagen, Hilden, Germany). The purity of total RNA was assessed by Biophotometer plus (Eppendorf, Hamburg, Germany). The RNA samples were used in the first strand cDNA synthesis with High Capacity cDNA Reverse Transcription Kit (#4368813 Thermo Fisher Scientific, Yokohama, Japan). All samples were tested in triplicate and average values were used for quantification. The average values were normalized to Vic-labeled Actb mRNA (Cat #4352341E: pre-developed TaqMan Assay Reagents, Thermo Fisher Scientific, Yokohama, Japan).

[5] = 0.038% glyphosate (0.1% Roundup)
[6] = 0.095% glyphosate (0.25% Roundup)
[7] = 0.19% glyphosate (0.50% Roundup)
[8] = 0.285% glyphosate (0.75% Roundup)

Compound: O=C(O)CNCP(=O)(O)O [glyphosate]
- Alive number of offspring on P21 [1, 5]: 33
- Maternal mortality [1, 5]: 0%
- Number of offspring born [1, 5]: 33
- Offspring mortality [1, 5]: 0%
- Alive number of mothers on P0 ([1]; 0.038% glyphosate (0.1% Roundup), 3 mothers used): 3
- Alive number of offspring on P21 [1, 6]: 24
- Maternal mortality [1, 6]: 0%
- Number of offspring born [1, 6]: 30
- Offspring mortality [1, 6]: 20%
- Alive number of mothers on P0 ([1]; 0.095% glyphosate (0.25% Roundup), 3 mothers used): 3
- body weight of mothers at E17 ([1]; 0.095% glyphosate vs water exposure mothers): significantly lower
- Alive number of offspring on P21 [1, 7]: 2
- Maternal mortality [1, 7]: 20%
- Number of offspring born [1, 7]: 43
- Offspring mortality [1, 7]: 95.3%
- Alive number of mothers on P0 ([1]; 0.19% glyphosate (0.50% Roundup), 5 mothers used): 4
- Alive number of offspring on P21 [1, 8]: 4
- Maternal mortality [1, 8]: 25%
- Number of offspring born [1, 8]: 32
- Offspring mortality [1, 8]: 87.5%
- Alive number of mothers on P0 ([1]; 0.285% glyphosate (0.75% Roundup), 4 mothers used): 3
- Alive number of offspring on P21 ([1]; 0.38% glyphosate (1% Roundup)): 0
- Number of offspring born ([1]; 0.38% glyphosate (1% Roundup)): 0
- Maternal mortality ([1]; 0.38% glyphosate (1% Roundup) in drinking water from E5): 100%
- Alive number of mothers on P0 ([1]; 0.38% glyphosate (1% Roundup) in drinking water from E5, 4 mothers used): 0
- body weight of pregnant mice ([1]; glyphosate 0.038%-0.285%): increased gradually
- body weight of pregnant mice ([1]; high concentration (0.38%) glyphosate): not increased
- Behavioral abnormality ([1]; 0.038% glyphosate (0.1% Roundup), locomotion, three chamber test, forced swimming test): did not show any behavioral abnormality
- Behavioral abnormality [1, 6]: observed
- three-chamber social interaction test [2]: social interaction deficits

Compound: polyriboinosinic-polyribocytidilic acid [Poly(I:C)]
- GAD67-IR in the PrL and IL of mPFC [3]: significantly lower
- expression of sEH (or Ephx2) mRNA in the PFC [4]: significantly higher
